Data as given in PubChem BioAssay AID1259407 (Chemical Carcinogenesis Research Information System (CCRIS), 2018).
Calls of active or inactive are those of the source. No rule for the calls is given here.

Tested on: CCRIS mutagenicity, Ames/micronucleus/aberration tests
Test: CCRIS mutagenicity studies
[1] = Test System: AMES SALMONELLA TYPHIMURIUM, Strain/Indicator: TA98, Metabolic Activation: NONE, Method: PREINCUBATION
[2] = Test System: AMES SALMONELLA TYPHIMURIUM, Strain/Indicator: TA100, Metabolic Activation: NONE, Method: PREINCUBATION
[3] = Test System: AMES SALMONELLA TYPHIMURIUM, Strain/Indicator: TA98, Metabolic Activation: NONE, Method: STANDARD PLATE
[4] = Test System: AMES SALMONELLA TYPHIMURIUM, Strain/Indicator: TA100, Metabolic Activation: NONE, Method: STANDARD PLATE

Compound: CCCCC(CC)COP(=O)(Oc1ccccc1)Oc1ccccc1 (stereo not given)
- mutagenic call (Test System: AMES SALMONELLA TYPHIMURIUM, Strain/Indicator: TA98, Metabolic Activation: HAMSTER, LIVER, S-9, AROCLOR 1254 (10%), Method: PREINCUBATION): inactive; negative
- mutagenic call [1]: inactive; negative
- mutagenic call (Test System: AMES SALMONELLA TYPHIMURIUM, Strain/Indicator: TA98, Metabolic Activation: RAT, LIVER, S-9, AROCLOR 1254 (10%), Method: PREINCUBATION): inactive; negative
- mutagenic call (Test System: AMES SALMONELLA TYPHIMURIUM, Strain/Indicator: TA100, Metabolic Activation: HAMSTER, LIVER, S-9, AROCLOR 1254 (10%), Method: PREINCUBATION): inactive; negative
- mutagenic call [2]: inactive; negative
- mutagenic call (Test System: AMES SALMONELLA TYPHIMURIUM, Strain/Indicator: TA100, Metabolic Activation: RAT, LIVER, S-9, AROCLOR 1254 (10%), Method: PREINCUBATION): inactive; negative
- mutagenic call (Test System: AMES SALMONELLA TYPHIMURIUM, Strain/Indicator: TA1535, Metabolic Activation: HAMSTER, LIVER, S-9, AROCLOR 1254 (10%), Method: PREINCUBATION): inactive; negative
- mutagenic call (Test System: AMES SALMONELLA TYPHIMURIUM, Strain/Indicator: TA1535, Metabolic Activation: NONE, Method: PREINCUBATION): inactive; negative
- mutagenic call (Test System: AMES SALMONELLA TYPHIMURIUM, Strain/Indicator: TA1535, Metabolic Activation: RAT, LIVER, S-9, AROCLOR 1254 (10%), Method: PREINCUBATION): inactive; negative
- mutagenic call (Test System: AMES SALMONELLA TYPHIMURIUM, Strain/Indicator: TA1537, Metabolic Activation: HAMSTER, LIVER, S-9, AROCLOR 1254 (10%), Method: PREINCUBATION): inactive; negative
- mutagenic call (Test System: AMES SALMONELLA TYPHIMURIUM, Strain/Indicator: TA1537, Metabolic Activation: NONE, Method: PREINCUBATION): inactive; negative
- mutagenic call (Test System: AMES SALMONELLA TYPHIMURIUM, Strain/Indicator: TA1537, Metabolic Activation: RAT, LIVER, S-9, AROCLOR 1254 (10%), Method: PREINCUBATION): inactive; negative

Compound: O=C1c2ccccc2C(=O)c2c1ccc(O[C@@H]1O[C@H](CO[C@@H]3OC[C@@H](O)[C@H](O)[C@H]3O)[C@@H](O)[C@H](O)[C@H]1O)c2O
- mutagenic call [1]: inactive; negative
- mutagenic call (Test System: AMES SALMONELLA TYPHIMURIUM, Strain/Indicator: TA98, Metabolic Activation: RAT, LIVER, S-9, PCB, Method: PREINCUBATION): inactive; negative
- mutagenic call [2]: inactive; negative
- mutagenic call (Test System: AMES SALMONELLA TYPHIMURIUM, Strain/Indicator: TA100, Metabolic Activation: RAT, LIVER, S-9, PCB, Method: PREINCUBATION): inactive; negative
- mutagenic call (Test System: UDS PRIMARY RAT HEPATOCYTES, Strain/Indicator: THY INCORP, Metabolic Activation: NONE): active; positive

Compound: O=C(Nc1cccc([N+](=O)[O-])c1)c1csc([N+](=O)[O-])c1
- mutagenic call [3]: active; positive
- mutagenic call [4]: active; positive

Compound: Nc1ccc2c(c1)Cc1cc(N)ccc1-2
- mutagenic call [3]: active; positive
- mutagenic call (Test System: AMES SALMONELLA TYPHIMURIUM, Strain/Indicator: TA98, Metabolic Activation: RAT, LIVER, S-9, AROCLOR 1254, Method: STANDARD PLATE): active; positive
- mutagenic call [4]: inactive; negative
- mutagenic call (Test System: AMES SALMONELLA TYPHIMURIUM, Strain/Indicator: TA100, Metabolic Activation: RAT, LIVER, S-9, AROCLOR 1254, Method: STANDARD PLATE): active; positive
- mutagenic call (Test System: AMES SALMONELLA TYPHIMURIUM, Strain/Indicator: TA1538, Metabolic Activation: NONE, Method: STANDARD PLATE): active; positive
- mutagenic call (Test System: AMES SALMONELLA TYPHIMURIUM, Strain/Indicator: TA1538, Metabolic Activation: RAT, LIVER, S-9, AROCLOR 1254, Method: STANDARD PLATE): active; positive
